In patent US20100190735A1, “Mouthwash and Method of Using Same for the Treatment of Mucositis or Stomatitis” (priority 2006, published 2010):
Structures can show the parent of a compound that is named as a salt. Where two headings read alike, the source gives them in different places.

Experiments:
[1] = in H2O, cited from earlier work
[2] = Storage stability of mouth rinse formulation B8: potency of the actives by HPLC; format: physicochemical
From the text: (§1) Quantification of the respective ingredients was done using high performance liquid chromatography (HPLC). A difference in calculated quantity of less than 5% from the intial formulation (i.e. time=0) amount was considered a “pass”, that is, indicative of minimal degradation. The relative standard deviation for the HPLC calculations was 3%.

[3] = Storage stability of formulation B8: preservative assay by HPLC; format: physicochemical
From the text: as §1

[4] = formulation B8, 2 months at 40° C.
[5] = formulation B8, 2 months at 40° C., 90 to 110% of label claim, less than 5% change
[6] = formulation B8, 2 months at room temperature
[7] = formulation B8, 2 months at room temperature, 90 to 110% of label claim, less than 5% change
[8] = formulation B8, 3 months at 40° C.
[9] = formulation B8, 3 months at 40° C., 90 to 110% of label claim, less than 5% change
[10] = formulation B8, 3 months at room temperature
[11] = formulation B8, 3 months at room temperature, 90 to 110% of label claim, less than 5% change
[12] = formulation B8, 4 months at 40° C.
[13] = formulation B8, 4 months at 40° C., 90 to 110% of label claim, less than 5% change
[14] = formulation B8, 4 months at room temperature, 90 to 110% of label claim, less than 5% change
[15] = formulation B8, 12 months at fridge 4° C.
[16] = formulation B8, 12 months at fridge 4° C., 90 to 110% of label claim, less than 5% change
[17] = formulation B8, 12 months at room temperature
[18] = formulation B8, 12 months at room temperature, 90 to 110% of label claim, less than 5% change
[19] = formulation B8, time = 0, limits 90 to 110% of label claim

Row | Structure (SMILES) | Solubility (Notes) ([1]; in words) | Potency (of label claim) [2, 4] [%] | Potency Pass/fail [2, 5] | Potency (of label claim) [2, 6] [%] | Potency Pass/fail [2, 7] | Potency (of label claim) [2, 8] [%] | Potency Pass/fail [2, 9] | Potency (of label claim) [2, 10] [%] | Potency Pass/fail [2, 11] | Potency (of label claim) [2, 12] [%] | Potency Pass/fail [2, 13] | Potency Pass/fail [2, 14] | Potency (of label claim) [2, 15] [%] | Potency Pass/fail [2, 16] | Potency (of label claim) [2, 17] [%] | Potency Pass/fail [2, 18] | Potency (of label claim) ([2]; formulation B8, time = 0) [%] | Potency Pass/fail [2, 19] | Preservative assay [3, 4] [%] | Preservative assay [3, 6] [%] | other results
1 | C[C@@H]1C[C@H]2[C@@H]3CCC4=CC(=O)C=C[C@]4(C)[C@@]3(F)[C@@H](O)C[C@]2(C)[C@@]1(O)C(=O)COP(=O)(O)O [Dexamethasone sodium phosphate, Dexamethasone 21-phosphate disodium salt] | H2O soluble |  |  |  |  |  |  |  |  |  |  |  |  |  |  |  |  |  |  |  | 
2 | CN(C)CCOC(c1ccccc1)c1ccccc1 [Diphenhydramine HCl] |  | 100.2 | Pass (A difference in calculated quantity of less than 5% from the intial formulation (i.e. time=0) amount was considered a “pass”) | 100.8 | Pass (A difference in calculated quantity of less than 5% from the intial formulation (i.e. time=0) amount was considered a “pass”) | 101.7 | Pass (A difference in calculated quantity of less than 5% from the intial formulation (i.e. time=0) amount was considered a “pass”) | 101.85 | Pass (A difference in calculated quantity of less than 5% from the intial formulation (i.e. time=0) amount was considered a “pass”) | 100.1 | Pass (A difference in calculated quantity of less than 5% from the intial formulation (i.e. time=0) amount was considered a “pass”) | Pass (A difference in calculated quantity of less than 5% from the intial formulation (i.e. time=0) amount was considered a “pass”) | 102.4 | Pass (A difference in calculated quantity of less than 5% from the intial formulation (i.e. time=0) amount was considered a “pass”) | 103.0 | Pass (A difference in calculated quantity of less than 5% from the intial formulation (i.e. time=0) amount was considered a “pass”) | 100.6 | Pass (A difference in calculated quantity of less than 5% from the intial formulation (i.e. time=0) amount was considered a “pass”) |  |  | 
3 | CCN(CC)CC(=O)Nc1c(C)cccc1C [Lidocaine HCl] |  | 98.1 | Pass (A difference in calculated quantity of less than 5% from the intial formulation (i.e. time=0) amount was considered a “pass”) | 99.7 | Pass (A difference in calculated quantity of less than 5% from the intial formulation (i.e. time=0) amount was considered a “pass”) | 102.15 | Pass (A difference in calculated quantity of less than 5% from the intial formulation (i.e. time=0) amount was considered a “pass”) | 101.8 | Pass (A difference in calculated quantity of less than 5% from the intial formulation (i.e. time=0) amount was considered a “pass”) | 102.9 | Pass (A difference in calculated quantity of less than 5% from the intial formulation (i.e. time=0) amount was considered a “pass”) | Pass (A difference in calculated quantity of less than 5% from the intial formulation (i.e. time=0) amount was considered a “pass”) | 101.4 | Pass (A difference in calculated quantity of less than 5% from the intial formulation (i.e. time=0) amount was considered a “pass”) | 101.4 | Pass (A difference in calculated quantity of less than 5% from the intial formulation (i.e. time=0) amount was considered a “pass”) | 100.4 | Pass (A difference in calculated quantity of less than 5% from the intial formulation (i.e. time=0) amount was considered a “pass”) |  |  | 
4 | COC(=O)c1ccc(O)cc1 [Methyl paraben] |  |  |  |  |  |  |  |  |  |  |  |  |  |  |  |  |  |  | 95 | 97.6 | Preservative assay [3, 8]: 95.7%; Preservative assay [3, 10]: 100.1%; Preservative assay [3, 12]: 97.1%; Preservative assay [3, 17]: Methyl P - 98.2%; Preservative assay ([3]; formulation B8, time = 0): paraben: 100.8%
5 | C[C@@H]1[C@H](O)[C@@H](C)/C=C/C=C/CC/C=C/C=C/C=C/C=C/C(O[C@H]2O[C@H](C)[C@@H](O)[C@H](N)[C@@H]2O)CC2O[C@](O)(CC(O)C(O)CCC(O)CC(O)CC(O)CC(=O)O[C@H]1C)CC(O)C2C(=O)O (stereo partly drawn) [Nystatin] | slightly soluble- | 98.4 | Fail | 106.8 | Pass (A difference in calculated quantity of less than 5% from the intial formulation (i.e. time=0) amount was considered a “pass”) | 88.8 | Fail | 106 | Pass (A difference in calculated quantity of less than 5% from the intial formulation (i.e. time=0) amount was considered a “pass”) | 92.4 | Fail | Pass (A difference in calculated quantity of less than 5% from the intial formulation (i.e. time=0) amount was considered a “pass”) | 101.7 | Pass (A difference in calculated quantity of less than 5% from the intial formulation (i.e. time=0) amount was considered a “pass”) | 109.6 | Pass (A difference in calculated quantity of less than 5% from the intial formulation (i.e. time=0) amount was considered a “pass”) | 108.5 | Pass (A difference in calculated quantity of less than 5% from the intial formulation (i.e. time=0) amount was considered a “pass”) |  |  | Potency (of label claim) ([2]; formulation B8, 4 months at room temperature): 105.3%; Solubility (Notes) [1]: 4 mg/ml in H2O
6 | CCCOC(=O)c1ccc(O)cc1 [Propyl paraben] |  |  |  |  |  |  |  |  |  |  |  |  |  |  |  |  |  |  | 99.1 | 99.3 | Preservative assay [3, 8]: 99.4%; Preservative assay [3, 10]: 100.4%; Preservative assay [3, 12]: 99.2%; Preservative assay [3, 17]: Propul P - 99.1%; Preservative assay ([3]; formulation B8, time = 0): paraben: 99.1%
